Results on 28 compounds are retold here after patent US9078899B2, “Pyrazolyl-based carboxamides II” (Grünenthal GmbH, priority 2013, dated 2015).

The assay deals with T1, CRAC channel (Homo sapiens, UniProt Q96D31).
T1 construct: host or cells: HEK293
Kind of assay: HEK Calcium Influx Assay (FLIPR). It counts as cell-based. As for the experimental part: The effect of compounds of the invention on intracellular [Ca^2+] was tested in the HEK293 cell line (ECACC).
HEK293 cells were cultured in DMEM/F12/Glutamax (Gibco) containing 10% FCS (Gibco), and maintained at 37° C., 5% CO2. Cell were split twice a week [3*10^6 (Mon-Thu) and 1*10^6 (Thu-Mon) cells/50 ml medium in T-175 ZK culture flasks, respectively]. Twenty four hours pre-experiment, cells were seeded on 96 well plates (Poly-D-Lysine 96well Black/Clear Plate, BD Biocoat REF 356640) at a density of 40,000 cells/well in DMEM/F12 (Gibco) containing 10% FCS (Gibco), and maintained at 37° C., 5% CO2.
Prior to store-depletion, cell culture medium was removed and cells were loaded with the a Calcium-sensitive fluorescent dye comprised within the Calcium-4-assay kit (Molecular Devices) in nominally Ca^2+-free HBS buffer (140 mM NaCl, 4 mM KCl, 0.2 mM MgCl2, 11 mM D-glucose, and 10 mM HEPES, pH 7.4) according to manufacturer's instruction for 60 min at 37° C., 5% CO2.
Passive depletion of intracellular Ca^2+-stores was then triggered by employing the SERCA inhibitor thapsigargin (2 μM final) for 10 min in the dark (RT). To prevent immediate Ca^2+-entry via the activated Store-operated channels (SOCs), cells were maintained in Ca^2+-free HBS buffer comprising 100 μM EGTA during store-depletion.
Intracellular changes in [Ca^2+] were subsequently monitored with the FLIPR device (Molecular Devices). In brief, baseline imaging post-store depletion was allowed for 1 min before adjusting the extracellular buffer to 3 mM CaCl2. Increases in intracellular [Ca^2+] due to pre-activated SOC channels were monitored for 15 min until intracellular Ca^2+ levels had declined into a steady-state. Finally, compounds were administered and Ca^2+ signals were recorded for additional 10 min.
Inhibition of endogenous SOC in HEK293 cells was quantified employing the average Ca^2+ signal measured from 9.5-10 min post-administration. Zero percent inhibition (MAX) was defined as the Ca^2+ signal recorded from wells to which DMSO-only had been added instead of compound. Hundred percent inhibition (MIN) was defined as the signal obtained from wells in which cells haven't been treated with TG prior to Ca^2+ addition and to which DMSO-only had been added instead of compound. For routine IC50 determinations of compounds, 8 concentrations of a serial dilution (1:3.16) were tested, starting off from 10 μM. Reliable IC50's could consequently be determined only, if they were at least sub 2.5-3 μM.

Where [1] appears, read: 10 μM, endogenous SOC in HEK293 cells, thapsigargin store depletion, Ca2+ signal 9.5-10 min post-administration, read-out: % inhib.[@ 10 μM] FLIPR.

Like-named read-outs stand apart in the source and are kept apart here.

T1 sequence (Q96D31 whole entry): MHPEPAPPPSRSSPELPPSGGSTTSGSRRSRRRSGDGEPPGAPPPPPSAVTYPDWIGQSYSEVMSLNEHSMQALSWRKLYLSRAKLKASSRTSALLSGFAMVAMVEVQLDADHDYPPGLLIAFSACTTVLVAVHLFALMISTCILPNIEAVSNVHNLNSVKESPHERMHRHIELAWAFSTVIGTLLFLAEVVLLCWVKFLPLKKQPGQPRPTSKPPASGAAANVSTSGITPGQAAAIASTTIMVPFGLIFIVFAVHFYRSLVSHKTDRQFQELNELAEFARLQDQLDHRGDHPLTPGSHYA

Consider `Cn1nc(C(=O)Nc2c(F)cccc2F)cc1-c1cc(F)ccc1F` [Example 5, 5-(2,5-Difluoro-phenyl)-N-(2,6-difluoro-phenyl)-1-methyl-1H-pyrazole-3-carboxylic acid amide], for which the inhibition at 10 µM under setting [1] lay in the range of 50 to 70%.
Consider `Cn1nc(C(=O)Nc2c(F)cccc2F)cc1-c1cc(C(F)(F)F)ccc1F` [Example 6, N-(2,6-Difluoro-phenyl)-5-[2-fluoro-5-(trifluoromethyl)-phenyl]-1-methyl-1H-pyrazole-3-carboxylic acid amide], for which, under setting [1], the inhibition at 10 µM is above 70%.
In the case of `Cn1nc(C(=O)Nc2ccncc2F)cc1-c1ccc(OC(F)(F)F)cc1Cl` [Example 11, 5-[2-Chloro-4-(trifluoromethyloxy)-phenyl]-N-(3-fluoro-pyridin-4-yl)-1-methyl-1H-pyrazole-3-carboxylic acid amide], the inhibition at 10 µM under setting [1] was in the range of 50 to 70%.
The same measure, in the same setting: the figure for `COc1ccc(OC)c(-c2cc(C(=O)Nc3ccc(S(C)(=O)=O)cc3F)nn2C)c1` [Example 13, 5-(2,5-Dimethoxyphenyl)-N-(2-fluoro-4-methylsulfonyl-phenyl)-1-methyl-1H-pyrazole-3-carboxylic acid amide] is 50 to 70%.
Same read-out and setting: the figure for `COc1ccc(OC)c(-c2cc(C(=O)Nc3ccncc3C(F)(F)F)nn2C)c1` [Example 14, 5-(2,5-Dimethoxyphenyl)-1-methyl-N-[3-(trifluoromethyl)-pyridin-4-yl]-1H-pyrazole-3-carboxylic acid amide] is 50 to 70%; for `COc1ccc(OC)c(-c2cc(C(=O)Nc3ccncc3F)nn2C)c1` [Example 19, 5-(2,5-Dimethoxyphenyl)-N-(3-fluoro-pyridin-4-yl)-1-methyl-1H-pyrazole-3-carboxylic acid amide] it is above 70%.
`COc1ccc(Cl)cc1-c1cc(C(=O)Nc2ccncc2F)nn1C` [Example 22, 5-(5-Chloro-2-methoxy-phenyl)-N-(3-fluoro-pyridin-4-yl)-1-methyl-1H-pyrazole-3-carboxylic acid amide]: under setting [1], the inhibition at 10 µM is 50 to 70%.
For `Cc1ccc(Cl)cc1-c1cc(C(=O)Nc2ccncc2F)nn1C` [Example 23, 5-(5-Chloro-2-methyl-phenyl)-N-(3-fluoro-pyridin-4-yl)-1-methyl-1H-pyrazole-3-carboxylic acid amide], the inhibition at 10 µM under setting [1] fell in the range of 50 to 70%.
As for `COc1ccc(-c2cc(C(=O)Nc3ccncc3F)nn2C)c(C)c1` [Example 24, N-(3-Fluoro-pyridin-4-yl)-5-(4-methoxy-2-methyl-phenyl)-1-methyl-1H-pyrazole-3-carboxylic acid amide], the inhibition at 10 µM under setting [1] is above 70%.
On to `Cc1cnccc1NC(=O)c1cc(-c2cc(Cl)ccc2C)n(C)n1` [Example 28, 5-(5-Chloro-2-methyl-phenyl)-1-methyl-N-(3-methyl-pyridin-4-yl)-1H-pyrazole-3-carboxylic acid amide], for which the inhibition at 10 µM under setting [1] was in the range of 50 to 70%.
As to `Cc1ccc(C(F)(F)F)cc1-c1cc(C(=O)Nc2ccncc2F)nn1C` [Example 29, N-(3-Fluoro-pyridin-4-yl)-1-methyl-5-[2-methyl-5-(trifluoromethyl)-phenyl]-1H-pyrazole-3-carboxylic acid amide], the inhibition at 10 µM under setting [1] was in the range of 50 to 70%.
For `COc1ccc(OC)c(-c2cc(C(=O)Nc3ccccc3F)nn2C)c1` [Example 33, 5-(2,5-Dimethoxyphenyl)-N-(2-fluorophenyl)-1-methyl-1H-pyrazole-3-carboxylic acid amide], the inhibition at 10 µM under setting [1] is above 70%.
Consider `CCn1nc(C(=O)Nc2c(F)cccc2F)cc1-c1cc(OC)ccc1OC` [Example 37, N-(2,6-Difluoro-phenyl)-5-(2,5-dimethoxyphenyl)-1-ethyl-1H-pyrazole-3-carboxylic acid amide], for which, under setting [1], the inhibition at 10 µM lay within 50 to 70%.
Take `Cn1nc(C(=O)Nc2c(F)cccc2F)cc1-c1cc(C(F)(F)F)ccc1C#N` [Example 38, 5-[2-Cyano-5-(trifluoromethyl)-phenyl]-N-(2,6-difluoro-phenyl)-1-methyl-1H-pyrazole-3-carboxylic acid amide]: the inhibition at 10 µM under setting [1] fell in the range of 50 to 70%.
Still for that read-out and setting: with `COc1ccc(OC)c(-c2cc(C(=O)Nc3c(F)cccc3F)n[nH]2)c1` [Example 41, N-(2,6-Difluoro-phenyl)-5-(2,5-dimethoxyphenyl)-1H-pyrazole-3-carboxylic acid amide] the figure was above 70%.
`COc1ccc(OC)c(-c2c(N)c(C(=O)Nc3ccncc3F)nn2C)c1` [Example 48, 4-Amino-5-(2,5-dimethoxyphenyl)-N-(3-fluoro-pyridin-4-yl)-1-methyl-1H-pyrazole-3-carboxylic acid amide]: the inhibition at 10 µM under setting [1] is above 70%.
As for `Cn1nc(C(=O)Nc2c(F)cccc2F)cc1-c1c(F)cccc1F` [Example 50, N,5-Bis(2,6-difluoro-phenyl)-1-methyl-1H-pyrazole-3-carboxylic acid amide], under setting [1], the inhibition at 10 µM lay in the range of 50 to 70%.
On to `Cc1cccc(Cl)c1NC(=O)c1cc(-c2c(F)cccc2F)n(C)n1` [Example 52, N-(2-Chloro-6-methyl-phenyl)-5-(2,6-difluoro-phenyl)-1-methyl-1H-pyrazole-3-carboxylic acid amide], for which the inhibition at 10 µM under setting [1] was in the range of 50 to 70%.
For the compound `Cc1cncc(F)c1NC(=O)c1cc(-c2c(F)cccc2F)n(C)n1` [Example 53, 5-(2,6-Difluoro-phenyl)-N-(3-fluoro-5-methyl-pyridin-4-yl)-1-methyl-1H-pyrazole-3-carboxylic acid amide], the inhibition at 10 µM under setting [1] fell in the range of 50 to 70%.
Regarding `Cn1nc(C(=O)Nc2ccccc2OC(F)(F)F)cc1-c1c(F)cccc1C(F)(F)F` [Example 54, 5-[2-Fluoro-6-(trifluoromethyl)-phenyl]-1-methyl-N-[2-(trifluoromethyloxy)-phenyl]-1H-pyrazole-3-carboxylic acid amide], under setting [1], the inhibition at 10 µM was 50 to 70%.
On the same count and under the same terms, the figure for `Cn1nc(C(=O)Nc2ccc(F)cc2F)cc1-c1c(F)cccc1C(F)(F)F` [Example 55, N-(2,4-Difluoro-phenyl)-5-[2-fluoro-6-(trifluoromethyl)-phenyl]-1-methyl-1H-pyrazole-3-carboxylic acid amide] is 50 to 70%.
Turning to `Cn1nc(C(=O)Nc2ccccc2C#N)cc1-c1c(F)cccc1C(F)(F)F` [Example 56, N-(2-Cyano-phenyl)-5-[2-fluoro-6-(trifluoromethyl)-phenyl]-1-methyl-1H-pyrazole-3-carboxylic acid amide], the inhibition at 10 µM under setting [1] was 50 to 70%.
`Cn1nc(C(=O)Nc2ccc(Cl)cc2Cl)cc1-c1c(F)cccc1C(F)(F)F` [Example 57, N-(2,4-Dichlorophenyl)-5-[2-fluoro-6-(trifluoromethyl)-phenyl]-1-methyl-1H-pyrazole-3-carboxylic acid amide]: the inhibition at 10 µM (HEK293, read-out: % inhib.[@ 10 μM] FLIPR) lay in the range of 50 to 70%.
In the case of `COc1cc(F)c(NC(=O)c2cc(-c3c(F)cccc3C(F)(F)F)n(C)n2)c(F)c1` [Example 58, N-(2,6-Difluoro-4-methoxy-phenyl)-5-[2-fluoro-6-(trifluoromethyl)-phenyl]-1-methyl-1H-pyrazole-3-carboxylic acid amide], under setting [1], the inhibition at 10 µM lay within 50 to 70%.
In the case of `Cc1cccc(F)c1NC(=O)c1cc(-c2c(F)cccc2C(F)(F)F)n(C)n1` [Example 59, N-(2-Fluoro-6-methyl-phenyl)-5-[2-fluoro-6-(trifluoromethyl)-phenyl]-1-methyl-1H-pyrazole-3-carboxylic acid amide], under setting [1], the inhibition at 10 µM was above 70%.
For `Cn1nc(C(=O)Nc2ccccc2C(F)(F)F)cc1-c1c(F)cccc1C(F)(F)F` [Example 60, 5-[2-Fluoro-6-(trifluoromethyl)-phenyl]-1-methyl-N-[2-(trifluoromethyl)-phenyl]-1H-pyrazole-3-carboxylic acid amide], the inhibition at 10 µM under setting [1] was above 70%.
Turning to `Cn1nc(C(=O)Nc2ccccc2F)cc1-c1c(F)cccc1C(F)(F)F` [Example 61, N-(2-Fluorophenyl)-5-[2-fluoro-6-(trifluoromethyl)-phenyl]-1-methyl-1H-pyrazole-3-carboxylic acid amide], the inhibition at 10 µM under setting [1] is above 70%.
In the case of `Cn1nc(C(=O)Nc2ccncc2F)cc1-c1c(F)cccc1C(F)(F)F` [Example 62, N-(3-Fluoro-pyridin-4-yl)-5-[2-fluoro-6-(trifluoromethyl)-phenyl]-1-methyl-1H-pyrazole-3-carboxylic acid amide], under setting [1], the inhibition at 10 µM is above 70%.
